Earlier results on one compound are cited in patent publication US8211469B2, “Use of block copolymers based on vinyllactams and vinyl acetate as solubilizers” (priority 2006, dated 2012).

Molecules are shown by their SMILES.

For the data set the following is noted: 20° C.

As for `Fc1ccc([C@]2(Cn3cncn3)O[C@H]2c2ccccc2Cl)cc1` (racemic) [Epoxyconazole], the Solubility in water is 6.63*10^−4 g/100 ml.
